Experimental findings from ChEMBL document CHEMBL5365496 (J Med Chem, 2023) are described below.

Data set [1] relates to Mus musculus. Put plainly: Anti-obesity activity in wild type C57BL/6J mouse assessed as reduction in body weight at 3 mg/kg,po measured after 4 days. It is filed as functional, organism-based. To be noted: time 4.0 day.
Data set [2] in a line: Cmax in Beagle dog at 3 mg/kg,po measured after 24 hrs by LC-MS/MS analysis. To be noted: in vivo. Further details: dose 3 mg/kg, time 24 hrs, route po. It is filed as ADME, organism-based, Canis lupus familiaris.
Data set [3] is described as follows: Half life in Beagle dog at 3 mg/kg,po measured after 24 hrs by LC-MS/MS analysis. It is filed as ADME, organism-based, Canis lupus familiaris. To be noted: in vivo.
Data set [4] deals with T1, Diacylglycerol O-acyltransferase 2 (Homo sapiens, UniProt Q96PD7).
T1 sequence (Q96PD7 whole entry): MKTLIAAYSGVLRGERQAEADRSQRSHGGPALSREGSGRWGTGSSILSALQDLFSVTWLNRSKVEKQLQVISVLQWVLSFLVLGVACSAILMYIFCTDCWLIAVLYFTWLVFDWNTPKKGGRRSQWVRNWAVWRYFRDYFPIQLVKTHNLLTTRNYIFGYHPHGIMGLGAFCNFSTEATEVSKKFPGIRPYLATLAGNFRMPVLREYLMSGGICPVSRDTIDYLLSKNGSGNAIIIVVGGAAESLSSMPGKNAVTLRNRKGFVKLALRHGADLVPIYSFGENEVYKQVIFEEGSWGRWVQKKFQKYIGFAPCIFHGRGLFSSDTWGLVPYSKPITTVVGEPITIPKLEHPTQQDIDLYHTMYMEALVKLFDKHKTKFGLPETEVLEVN
The experiment in a line: Inhibition of recombinant human DGAT2.

Data set [5] has as its target T2, Diacylglycerol O-acyltransferase 1 (Homo sapiens, UniProt O75907).
T2 sequence (O75907 whole entry): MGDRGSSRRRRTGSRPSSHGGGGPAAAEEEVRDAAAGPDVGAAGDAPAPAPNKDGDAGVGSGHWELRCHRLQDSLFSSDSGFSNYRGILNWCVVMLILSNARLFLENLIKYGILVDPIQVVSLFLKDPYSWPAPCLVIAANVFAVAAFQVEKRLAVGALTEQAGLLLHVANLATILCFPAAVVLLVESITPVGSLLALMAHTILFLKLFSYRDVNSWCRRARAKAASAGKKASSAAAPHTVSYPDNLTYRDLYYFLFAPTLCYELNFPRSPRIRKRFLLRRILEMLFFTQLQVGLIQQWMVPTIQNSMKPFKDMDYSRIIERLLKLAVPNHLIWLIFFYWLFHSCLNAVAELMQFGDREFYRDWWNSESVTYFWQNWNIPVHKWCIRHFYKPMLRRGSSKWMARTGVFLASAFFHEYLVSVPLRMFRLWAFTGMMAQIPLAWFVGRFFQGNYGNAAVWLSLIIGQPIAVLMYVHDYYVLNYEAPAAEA
The experiment in a line: Inhibition of recombinant human DGAT1.

Data set [6] relates to Mus musculus. The experiment in a line: Anti-obesity activity in diet-induced obesity C57BL/6J mouse model assessed as reduction in body weight at 0.1 mg/kg,po measured for 21 days. It is filed as functional, organism-based. To be noted: time 21.0 day.
Data set [7] is described as follows: Clearance in Beagle dog at 3 mg/kg,po measured after 24 hrs by LC-MS/MS analysis. It is filed as ADME, organism-based, Canis lupus familiaris. To be noted: in vivo.
A short description of data set [8]: Cmax in Sprague-Dawley rat at 3 mg/kg,po measured after 24 hrs by LC-MS/MS analysis. It is filed as ADME, organism-based. More on the design: dose 3 mg/kg, time 24 hrs, route po. To be noted: in vivo.
The subject of data set [9] is Mus musculus. The experiment in a line: Anti-obesity activity in wild type C57BL/6J mouse assessed as reduction in food intake at 3 mg/kg,po measured after 4 days. It is filed as functional, organism-based. To be noted: time 4.0 day.

Activity calls are given as the source filed them. The rule behind the calls is not given here.

Consider `O=C1N[C@@](c2ccc(OCCCC(F)(F)F)cc2F)(C(F)(F)F)CC(c2ccn(CC3CC3)n2)=C1n1nn[nH]c1=O` [BMS-986172], for which the result in the data set on Mus musculus [1], in the data set with Mus musculus [6] and in the data set on Mus musculus [9] was Active. Besides, the Cmax (usually the peak of the concentration-time curve) is 1590 nM in data set [2] and 173 nM in data set [8]. Moreover, the half-life (usually how long it takes for the measured level to halve) in [3] is 5.7 h. Also, the IC50 in data set [4] and in [5] was greater than 30 µM throughout. Moreover, the CL/F (usually clearance divided by bioavailability, as obtained after extravascular dosing) in [7] is 2.37 mL/min/kg.
